# Several values for one entry are separate records, joined by “and”; a condition that tells them apart may be missing. Equal entries are not always repeated. Entries after “also recorded” stand apart in the source; their conditions may differ. Structures can show the parent of a compound that is named as a salt. Where two headings read alike, the source gives them in different places.
# Columns and labels:
# [1] = tested on: interferon alpha (Mu-IFN-α); experiment: Murine interferon alpha in plasma of dosed mice; assay type: in vivo; details: for Plasma Concentration of Interferon Alpha (Mu-IFN-α), Mean / Plasma Concentration of Interferon Alpha (Mu-IFN-α), Individual Value: single oral 73.0 mg/kg dose
# Excerpt: The normal mouse provides a useful system for the assessment of the degree to which the inventions described herein provide material improvement in the oral delivery of 1 (isatoribine). Not only can one measure the plasma concentrations of isatoribine arising from oral administration of the said prodrug(s) but also the extensive immunological research conducted in the mouse has provided reagents suitable for measuring the levels of interferon alpha, a cytokine of interest reflecting one of the desired biologic activities of isatoribine.
# Table 1 records the results of an assay for murine interferon alpha in the plasma of mice that were dosed two times with isatoribine, formulated in bicarbonate, at a level of 50 mg/kg by the oral route.
# Table 2 records the results of assays for murine interferon alpha in the plasma of mice that first were dosed with bicarbonate and then four hours later were dosed orally with isatoribine, formulated in bicarbonate, at a level of 50 mg/kg. Interferon was reported in the plasma from four mice, including two that had received the bicarbonate vehicle dose.
# Table 3 records the results of assays for murine interferon alpha in the plasma of mice that were dosed orally with val-isatoribine, dissolved in bicarbonate, at a dose that is equivalent to 50/mg/kg of isatoribine on a molar basis. […] Interferon was detected in all mice assayed at a given time point, indicating the reliability of the effect following val-isatoribine administration.
# In other experiments, plasma levels of isatoribine and interferon alpha were measured in mice that were dosed with isatoribine by the intravenous route, and these levels were compared to the levels of isatoribine and interferon alpha arising after oral administration of val-isatoribine. […] Thus, oral val-isatoribine provides levels of isatoribine and interferon that are approximately 50% of those observed after intravenous administration of isatoribine itself.
# [2] = Recovery of 1 in urine after intravenous administration; assay type: in vivo; details: read-out: recovery of administered dose in the urine as intact 1
# Procedure: Reference values for compound I were obtained by similar procedures after either oral or intravenous dosing. […] For this reason, in some experiments the amount of 1 in urine collected over a period of 24 hours after dosing was used to assess compounds.
# beagle dogs [3] = details: dog, in vivo, iv, 12.5 mg/kg
# Procedure: (§1) Formal toxicology studies of intravenously administered isatoribine and orally administered isatoribine and val-isatoribine were conducted in beagle dogs.
# (§2) In each case the compound was administered as a solution, by gavage or by intravenous infusion. Multiple parameters were assessed, as is customary in a toxicology study. In the studies providing higher potential exposure to isatoribine, the plasma concentration of isatoribine was assessed by a LC/MS method.
# in vivo = details: beagle, dog, iv, 12.5 mg/kg
# Procedure: as §1, §2
# beagle dogs [4] = details: cited from earlier work
# [5] = Toxicology studies in beagle dogs (GI tolerance); details: beagle, dog, iv; for AUC(0-t): plasma
# Procedure: as §1, §2
# beagle dogs [6] = experiment: Toxicology studies in beagle dogs (GI tolerance); details: dogs
# Procedure: as §1, §2
# [7] = Systemic exposure to isatoribine after oral administration to beagle dogs; assay type: in vivo; details: both 10 and 50 mg/kg
# Procedure: The effect of a prodrug (val-isatoribine, 3) on the systemic exposure to isatoribine (1) after oral administration to beagle dogs was investigated. Isatoribine was prepared in sodium bicarbonate solution.
# Four male and four female adult beagle dogs weighing between 15 to 27 kg and approximately 1-2 years old were used at the beginning of the study. The animals were divided into 2 groups of 2 males and 2 females each. The test material was administered by gavage on Days 1 and 8, allowing a 7-day washout period between administrations. Blood samples (2 mL) were collected from each animal at predose, 15, 30 minutes, 1, 2, 3, 4, 6, 8 and 10 hours into lithium heparin tubes after each dosing. The plasma was frozen at −70° C. until analysis. The plasma was analyzed for isatoribine by an HPLC-MS/MS assay.
# [8] = oral dosing, studies of Tables 1-3
# [9] = dogs, Oral Isatoribine, applied dose 2.5 mg/kg
# [10] = IV Isatoribine, applied dose 25 mg/kg
# [11] = Oral Val-Isatoribine, isatoribine equivalent applied dose 8.1 mg/kg
# [12] = Oral Val-Isatoribine, isatoribine equivalent applied dose 16 mg/kg
# [13] = Oral Val-Isatoribine, isatoribine equivalent applied dose 32 mg/kg
# [14] = Oral Val-Isatoribine, isatoribine equivalent applied dose 64 mg/kg
structure (smiles),measurement,setting,value
"Nc1nc2c(sc(=O)n2[C@@H]2O[C@H](CO)[C@@H](O)[C@H]2O)c(=O)[nH]1 [Compound 1, 5-amino-3-β-D-ribofuranosylthiazolo[4,5-d]pyrimidine-2,7-dione, reference compound]",interferon in plasma,"[1]; mice, two oral 50 mg/kg doses, interval four hours",no interferon was measurable
same,mice with interferon detected in plasma,[1]; [8],4 of the 114
same,dose excreted,[2],> 75%
same,Emesis or loose stool,beagle dogs [3],Neg.
same,GI lesions or irritation,beagle dogs [3],Neg.
same,AUC(0-t),in vivo,19500 ng·h/mL
same,limiting toxicity,"beagle dogs [4]; dog, in vivo, po",gastrointestinal lesions
same,Emesis or loose stool,beagle dogs [4]; [9],Neg.
same,GI lesions or irritation,beagle dogs [4]; [9],Neg.
same,GI lesions or irritation,"beagle dogs [4]; dogs, Oral Isatoribine, applied dose 5 mg/kg",Neg.
same,"dogs with multiple, scattered red lesions on the intestinal mucosa","beagle dogs [4]; oral, 10 mg/kg, gross histopathologic evaluation",four of eight dogs
same,NOAEL,[5]; in vivo,12.5 mg/kg
same,AUC(0-t),[5]; 25 mg/kg,42800 ng·h/mL
same,AUC(0-t),[5]; 50 mg/kg,87800 ng·h/mL
same,AUC(0-t),[5]; 100 mg/kg,209000 ng·h/mL
same,GI lesions,"beagle dogs [6]; intravenous, necropsy or histopathologic evaluation",No lesions were seen in the GI tract
same,Emesis or loose stool,beagle dogs [6]; [10],Neg.
same,GI lesions or irritation,beagle dogs [6]; [10],Neg.
same,GI lesions or irritation,"beagle dogs [6]; IV Isatoribine, applied dose 50 mg/kg",Neg.
same,GI lesions or irritation,"beagle dogs [6]; IV Isatoribine, applied dose 100 mg/kg",Neg.
"CC(C)[C@H](N)C(=O)OC[C@H]1O[C@@H](n2c(=O)sc3c(O)nc(N)nc32)[C@H](O)[C@@H]1O [Compound 3, 5-Amino-3-(5′-O-L-valinyl-β-D-ribofuranosyl)thiazolo[4,5-d]pyrimidine-2,7-dione Dihydrochloride]",increase of magnitude of average and peak interferon response versus isatoribine,"[1]; mice, oral",twofold
same,level of interferon relative to intravenous isatoribine,"[1]; mice, oral, 50 mg/kg isatoribine molar equivalent, vs intravenous isatoribine 25 mg/kg, FIG. 1",approximately 50%
same,interferon in plasma,"[1]; mice, oral, equivalent to 50 mg/kg isatoribine","readily measurable at 1.0 hour, 1.5 hours, and 2.0 hours after dosing"
same,"Plasma Concentration of Interferon Alpha (Mu-IFN-α), Mean","[1]; mice, 0.00 h",0.00 pg/mL
same,"Plasma Concentration of Interferon Alpha (Mu-IFN-α), Individual Value","[1]; mice, 0.00 h, listed as Val-Isatoribine, Dihydrochloride, 73 mg/kg",BQL (Below the Quantifiable Limit < 12.5 pg/mL); also recorded: BQL^125 pg/mL; also recorded: BQL^25 pg/mL
same,"Plasma Concentration of Interferon Alpha (Mu-IFN-α), Individual Value","[1]; mice, 0.25 h",BQL (Below the Quantifiable Limit < 12.5 pg/mL)
same,"Plasma Concentration of Interferon Alpha (Mu-IFN-α), Mean","[1]; mice, 0.25 h",0.00 pg/mL
same,"Plasma Concentration of Interferon Alpha (Mu-IFN-α), Mean","[1]; mice, 0.50 h",0.00 pg/mL
same,"Plasma Concentration of Interferon Alpha (Mu-IFN-α), Individual Value","[1]; mice, 0.50 h, listed as Val-Isatoribine, Dihydrochloride, 73 mg/kg",BQL^25 pg/mL; also recorded: BQL (Below the Quantifiable Limit < 12.5 pg/mL)
same,"Plasma Concentration of Interferon Alpha (Mu-IFN-α), Mean","[1]; mice, 0.75 h",0.00 pg/mL
same,"Plasma Concentration of Interferon Alpha (Mu-IFN-α), Individual Value","[1]; mice, 0.75 h, listed as Val-Isatoribine, Dihydrochloride, 73 mg/kg",BQL (Below the Quantifiable Limit < 12.5 pg/mL); also recorded: BQL^25 pg/mL
same,"Plasma Concentration of Interferon Alpha (Mu-IFN-α), Mean","[1]; mice, 1.00 h",129.1 pg/mL
same,"Plasma Concentration of Interferon Alpha (Mu-IFN-α), Individual Value","[1]; mice, 1.00 h, listed as Val-Isatoribine, Dihydrochloride, 73 mg/kg",173.2 pg/mL and 125.1 pg/mL and 89.0 pg/mL
same,"Plasma Concentration of Interferon Alpha (Mu-IFN-α), Mean","[1]; mice, 1.50 h",214.5 pg/mL
same,"Plasma Concentration of Interferon Alpha (Mu-IFN-α), Individual Value","[1]; mice, 1.50 h, listed as Val-Isatoribine, Dihydrochloride, 73 mg/kg",202.9 pg/mL and 145.9 pg/mL and 294.8 pg/mL
same,"Plasma Concentration of Interferon Alpha (Mu-IFN-α), Mean","[1]; mice, 2.00 h",108.5 pg/mL
same,"Plasma Concentration of Interferon Alpha (Mu-IFN-α), Individual Value","[1]; mice, 2.00 h, listed as Val-Isatoribine, Dihydrochloride, 73 mg/kg",49.2 pg/mL and 137.9 pg/mL and 138.3 pg/mL
same,"Plasma Concentration of Interferon Alpha (Mu-IFN-α), Individual Value","[1]; mice, 3.00 h",BQL^25 pg/mL
same,"Plasma Concentration of Interferon Alpha (Mu-IFN-α), Mean","[1]; mice, 3.00 h",0.00 pg/mL
same,"Plasma Concentration of Interferon Alpha (Mu-IFN-α), Mean","[1]; mice, 4.00 h",9.20 pg/mL
same,"Plasma Concentration of Interferon Alpha (Mu-IFN-α), Individual Value","[1]; mice, 4.00 h, listed as Val-Isatoribine, Dihydrochloride, 73 mg/kg",BQL^25 pg/mL and 27.6 pg/mL and BQL (Below the Quantifiable Limit < 12.5 pg/mL)
same,"Plasma Concentration of Interferon Alpha (Mu-IFN-α), Mean","[1]; mice, 5.00 h",0.00 pg/mL
same,"Plasma Concentration of Interferon Alpha (Mu-IFN-α), Individual Value","[1]; mice, 5.00 h, listed as Val-Isatoribine, Dihydrochloride, 73 mg/kg",BQL (Below the Quantifiable Limit < 12.5 pg/mL); also recorded: BQL^25 pg/mL
same,mice with interferon detected in plasma,[1]; [8],10 of the 30
same,proportion of mice exhibiting an interferon response,[1]; [8],30%
same,maximum concentrations of isatoribine compared to isatoribine itself,[7],at least doubled
same,GI lesions,beagle dogs [6]; oral,No GI lesions were found
same,Emesis or loose stool,beagle dogs [6]; [11],Neg.
same,GI lesions or irritation,beagle dogs [6]; [11],Neg.
same,Emesis or loose stool,beagle dogs [6]; [12],Neg.
same,GI lesions or irritation,beagle dogs [6]; [12],Neg.
same,Emesis or loose stool,beagle dogs [6]; [13],Neg.
same,GI lesions or irritation,beagle dogs [6]; [13],Neg.
same,Emesis or loose stool,beagle dogs [6]; [14],Neg.
same,GI lesions or irritation,beagle dogs [6]; [14],Neg.
same,GI lesions or irritation,"beagle dogs [6]; Oral Val-Isatoribine, isatoribine equivalent applied dose 130 mg/kg",Neg.
same,GI lesions or irritation,"beagle dogs [6]; Oral Val-Isatoribine, isatoribine equivalent applied dose 260 mg/kg",Neg.
same,GI lesions or irritation,"beagle dogs [6]; Oral Val-Isatoribine, isatoribine equivalent applied dose 390 mg/kg",Neg.

# Source: patent publication US20080070852A1, “3-Beta-D-Ribofuranosylthiazolo[ 4,5-D] Pyridimine Nucleosides and Uses Thereof” (priority 2004, published 2008)
